Tests used:
Type in all cases: functional
Rattus norvegicus [1] = assay: Compound evaluated for hypoglycemic activity by lowering blood glucose in streptozotocin-diabetic rats by 20% after oral administration; Highest dose tested; Inactive(less than 10% blood sugar decrease)
Rattus norvegicus [2] = assay: Hypoglycemic activity by lowering blood glucose in normal rats by 20% after oral administration.
Rattus norvegicus [3] = assay: Compound evaluated for hypoglycemic activity by lowering blood glucose in normal rats by 20% after oral administration; Inactive (less than 10% blood sugar decrease)
Rattus norvegicus [4] = assay: Compound evaluated for hypoglycemic activity by lowering blood glucose in normal rats by 20% after oral administration (highest dose tested)
Rattus norvegicus [5] = assay: Compound evaluated for hypoglycemic activity by lowering blood glucose in normal rats by 20% after oral administration; inactive (less than 10% blood sugar decrease)
Rattus norvegicus [6] = assay: Compound evaluated for hypoglycemic activity by lowering blood glucose in streptozotocin-diabetic rats by 20% after oral administration; Inactive(less than 10% blood sugar decrease)
Rattus norvegicus [7] = assay: Compound evaluated for hypoglycemic activity by lowering blood glucose in normal rats by 20% after oral administration
Rattus norvegicus [8] = assay: Compound evaluated for hypoglycemic activity by lowering blood glucose in normal rats by 50% after oral administration
Rattus norvegicus [9] = assay: Compound evaluated for hypoglycemic activity by lowering blood glucose in streptozotocin-diabetic rats by 20% after oral administration; Highest dose tested
Rattus norvegicus [10] = assay: Hypoglycemic activity by lowering blood glucose in normal rats by 50% after oral administration.
Rattus norvegicus [11] = assay: Compound evaluated for hypoglycemic activity by lowering blood glucose in normal rats by 50% after oral administration; inactive(less than 10% blood sugar decrease)
Rattus norvegicus [12] = assay: Compound evaluated for hypoglycemic activity by lowering blood glucose in normal rats by 20% after oral administration; highest dose tested;inactive(less than 10% blood sugar decrease)
Rattus norvegicus [13] = assay: Compound evaluated for hypoglycemic activity by lowering blood glucose in streptozotocin-diabetic rats by 20% after oral administration

N=C1N(C2CCCCC2)CCN1S(=O)(=O)c1ccc(CCNC(N)=O)cc1
ED20 (Rattus norvegicus [1]): > 0.76 mmol/kg | ED20 (Rattus norvegicus [2]): 0.39 mmol/kg

COCC(=O)NCCc1ccc(S(=O)(=O)N2CCN(C3CCCCC3)C2=N)cc1
ED20 (Rattus norvegicus [3]): > 0.92 mmol/kg

N=C1N(C2CCCCC2)CCN1S(=O)(=O)c1ccc(CCNC(=O)c2ccccn2)cc1
ED20 (Rattus norvegicus [4]): > 0.83 mmol/kg

Cc1ncsc1C(=O)NCCc1ccc(S(=O)(=O)N2CCN(C3CCCCC3)C2=N)cc1
ED20 (Rattus norvegicus [5]): > 0.22 mmol/kg

N=C1N(C2CCCCC2)CCN1S(=O)(=O)c1ccc(CCNC(=O)c2ccc[n+]([O-])c2)cc1
ED20 (Rattus norvegicus [6]): > 0.64 mmol/kg | ED20 (Rattus norvegicus [7]): 0.042 mmol/kg

N=C1N(C2CCCCC2)CCN1S(=O)(=O)c1ccc(CCNC(=O)c2ccccc2)cc1
ED50 (Rattus norvegicus [8]): 200 µmol/kg | ED20 (Rattus norvegicus [7]): 0.021 mmol/kg

C[S+]([O-])CC(=O)NCCc1ccc(S(=O)(=O)N2CCN(C3CCCCC3)C2=N)cc1 (stereo not given)
ED20 (Rattus norvegicus [1]): > 0.66 mmol/kg | ED20 (Rattus norvegicus [2]): 0.12 mmol/kg

CC[S+]([O-])CCC(=O)NCCc1ccc(S(=O)(=O)N2CCN(C3CCCCC3)C2=N)cc1 (stereo not given)
ED20 (Rattus norvegicus [9]): > 0.62 mmol/kg | ED20 (Rattus norvegicus [2]): 0.031 mmol/kg | ED50 (Rattus norvegicus [10]): 200 µmol/kg

CN(C)C(C(=O)NCCc1ccc(S(=O)(=O)N2CCN(C3CCCCC3)C2=N)cc1)c1ccccc1 (stereo not given)
ED20 (Rattus norvegicus [9]): > 0.55 mmol/kg | ED20 (Rattus norvegicus [2]): 0.037 mmol/kg | ED50 (Rattus norvegicus [10]): 170 µmol/kg

CCC[S+]([O-])CC(=O)NCCc1ccc(S(=O)(=O)N2CCN(C3CCCCC3)C2=N)cc1 (stereo not given)
ED20 (Rattus norvegicus [1]): > 0.62 mmol/kg | ED20 (Rattus norvegicus [2]): 0.071 mmol/kg

N=C(N)NC(=N)NCCc1ccccc1 [PHENFORMIN]
ED50 (Rattus norvegicus [11]): > 1000 µmol/kg | ED20 (Rattus norvegicus [12]): > 1 mmol/kg | ED20 (Rattus norvegicus [13]): 0.16 mmol/kg

CCCCNC(=O)NS(=O)(=O)c1ccc(C)cc1 [TOLBUTAMIDE]
ED50 (Rattus norvegicus [8]): 300 µmol/kg | ED20 (Rattus norvegicus [6]): > 1 mmol/kg | ED20 (Rattus norvegicus [7]): 0.056 mmol/kg

Reference: ChEMBL document CHEMBL1122254, “Sulfonyliminoimidazolidines. A new class of oral hypoglycemic agents. 1. 1-[[p-[2-(acylamino)ethyl]phenyl]sulfonyl]-2-iminoimidazolidines” (1983)
